Reference: patent US4377583A, “N-Methyl-D-glucamine salt of with 3,4-dihydro-5-methyl-6-(2-methylpropyl)-4-oxothieno[2,3-d]pyrimidine-2-c arboxylic acid” (Mead Johnson & Company, priority 1981, dated 1983)
Where a name gives a salt, the structure may show the parent alone.

What was measured:
[1] = Water solubility of isolated salts of MJ 12175 (redissolution); assay type: physicochemical; settings: for H2O Solubility isolated salt: room temperature (about 25° C.)
Excerpt: (§1) Many conventional pharmaceutically acceptable amine salts of MJ 12175 are not well suited for the present use due to limited solubility, lack of stability, pH ranges differing sufficiently from physiological pH (~7.4) to the extent that irritation of tissue becomes a problem.
(§2) The amine salts of MJ 12175 shown in Table 1 were first prepared in situ by adding the amine to a suspension of MJ 12175 in a quantity of water sufficient to give a 4% aqueous solution of the resulting salt. When a precipitate formed on amine addition indicating relative insolubility, pH was not measured as in the cases of salts 4 through 8 in Table 1. Although solutions were obtained with the other salts formed in situ supersaturation of these solutions appears likely since the four salts (Nos. 2, 3, 9, 11) which were isolated were less than 4% soluble on redissolution. […] The three crystalline salts were the only examples where solid precipitated from the in situ solutions on standing. Of the three crystalline isolated amine salts of MJ 12175, the glucamine salt best meets the water solubility and pH criteria.

pH of salts of MJ 12175 = assay type: physicochemical; settings: room temperature (about 25° C.)
Excerpt: as §1, §2

[2] = Stability of aqueous solutions on extended storage
[3] = Water solubility of salts of MJ 12175 formed in situ (4% aqueous solution); assay type: physicochemical; settings: room temperature (about 25° C.); precipitate formed on amine addition, indicating relative insolubility
Excerpt: as §1, §2

[4] = Physical state of isolated salts; assay type: physicochemical
Excerpt: as §2

[5] = cited from earlier work

In the case of `Cc1c(CC(C)C)sc2nc(C(=O)O)[nH]c(=O)c12` [MJ 12175, 3,4-Dihydro-5-methyl-6-(2-methylpropyl)-4-oxothieno[2,3-d]pyrimidine-2-carboxylic Acid], the “H2O Solubility isolated salt” value ([1]; listed as 1) is reported as 8900 µg/mL and the pH (pH of salts of MJ 12175; listed as 1) is reported as 11.22.
With `Cc1c(CC(C)C)sc2nc(C(=O)O)[nH]c(=O)c12` [Salt No. 2, 3,4-Dihydro-5-methyl-6-(2-methylpropyl)-4-oxothieno[2,3-d]pyrimidine-2-carboxylic Acid N-methyl-D-glucamine Salt] the “H2O Solubility isolated salt” value [1] was 12000 µg/mL, the solubility ([1]; water, isolated salts, redissolution) was < 40000 µg/mL and the pH (pH of salts of MJ 12175) was 6.4. For the same compound, the “stability of aqueous solutions” value [2] was “demonstrated the stability of its aqueous solutions on extended storage”.
In the case of `Cc1c(CC(C)C)sc2nc(C(=O)O)[nH]c(=O)c12` [compound 3], the “solubility of isolated salts on redissolution” value (“solubility of isolated salts” for short) ([1]; isolated salts, redissolution) is reported as “less than 4%”, the “H2O Solubility isolated salt” value [1] is reported as 5000 µg/mL and the pH (pH of salts of MJ 12175) is reported as 4.7.
In the case of `Cc1c(CC(C)C)sc2nc(C(=O)O)[nH]c(=O)c12` [compound 4], the “H2O Solubility in situ (ppt)” value [3] is reported as “ppt”.
For `Cc1c(CC(C)C)sc2nc(C(=O)O)[nH]c(=O)c12` [compound 9], the “solubility of isolated salts” value ([1]; isolated salts, redissolution) was “less than 4%”, the “H2O Solubility isolated salt” value [1] was < 1000 µg/mL and the pH (pH of salts of MJ 12175) was 6.81.
`Cc1c(CC(C)C)sc2nc(C(=O)O)[nH]c(=O)c12` [compound 10] showed a pH (pH of salts of MJ 12175) of 4.55.
With `Cc1c(CC(C)C)sc2nc(C(=O)O)[nH]c(=O)c12` [compound 11] the “solubility of isolated salts” value ([1]; isolated salts, redissolution) was “less than 4%”, the pH (pH of salts of MJ 12175) was 6.42 and the “physical state of isolated salt” value [4] was “remained a non-crystallinetar during attempted purification”.
`Cc1c(CC(C)C)sc2nc(C(=O)O)[nH]c(=O)c12` [compound 12] gave a pH (pH of salts of MJ 12175) of 6.29.
For `Cc1c(CC(C)C)sc2nc(C(=O)O)[nH]c(=O)c12` [compound 13], the pH (pH of salts of MJ 12175) was 8.08.
For `Cc1c(CC(C)C)sc2nc(C(=O)O)[nH]c(=O)c12` [compound 14], the pH (pH of salts of MJ 12175) was 9.59.
In the case of `Cc1c(CC(C)C)sc2nc(C(=O)O)[nH]c(=O)c12` [potassium salt], the pH of solutions ([5]; not desirable for nasal instillation) is given as “alkaline pH” and the water solubility ([5]; relative to MJ 12175) is given as “improved water solubility”.
